Measurements taken from publication PMC4393326, “The natural product brartemicin is a high affinity ligand for the carbohydrate-recognition domain of the macrophage receptor mincle” (Medchemcomm, 2015).
One block for each compound: values may come before it.

Assays:
CRD of human mincle = target: T1, CRD of human mincle (Homo sapiens, UniProt Q9ULY5); assay: Competition binding assay with immobilized CRD of human mincle; settings: Fig. S1
T1 construct: made in house; host or cells: bacterial expression system (analogous to the bovine one)
T1 sequence (Q9ULY5 87-206 limits assumed): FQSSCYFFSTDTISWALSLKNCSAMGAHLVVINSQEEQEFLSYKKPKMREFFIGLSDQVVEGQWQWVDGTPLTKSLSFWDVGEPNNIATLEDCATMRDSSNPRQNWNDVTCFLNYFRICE
Description: (§1) A biotin-tagged version of the CRD from bovine mincle was prepared in a bacterial expression system as previously described.[8] An equivalent fragment of human mincle was generated using an analogous system.[9] Binding competition assays, based on inhibition of binding of radioiodinated Man31-bovine serum albumin to the biotin-tagged CRDs immobilized on streptavidin-coated plates, were performed as previously described.[8] Results are reported as average ± standard deviation for at least 3 independent experiments, each performed in duplicate.

[1] = Solubility in aqueous media; format: physicochemical
CRD from bovine mincle = target: T2, CRD from bovine mincle (Bos taurus, UniProt E1BHM0); assay: Competition binding assay: inhibition of radioiodinated Man31-bovine serum albumin binding to immobilized biotin-tagged CRD; settings: for Ki: inhibition of mannose-conjugated serum albumin binding to bovine mincle CRD, average ± s.d. for three independent experiments; for Reduction in binding affinity compared to brartemicin / Rel. affinity (affinity relative to α,α-trehalose): bovine mincle CRD; for Rel. affinity (affinity relative to α,α-trehalose): α,α-trehalose = 1
T2 construct: A biotin-tagged version of the CRD from bovine mincle was prepared in a bacterial expression system; made in house; host or cells: bacterial expression system
T2 sequence (E1BHM0 78-211 limits assumed): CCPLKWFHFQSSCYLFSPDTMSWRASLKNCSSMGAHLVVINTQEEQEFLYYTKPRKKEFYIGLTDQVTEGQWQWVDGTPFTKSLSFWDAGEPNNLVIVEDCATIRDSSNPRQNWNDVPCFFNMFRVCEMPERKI
Description: The collection of compounds was tested in competition binding experiments with immobilized bovine mincle CRD[8] (Fig. 3a).
Fig. 3 a) Data for inhibition of mannose-conjugated serum albumin binding to the CRD from bovine mincle by brartemicin and analogs. K I-values (average ± s.d. for three independent experiments) and affinities relative to α,α-trehalose. b) Top view and c) side view of highest scoring docking pose of brartemicin with bovine mincle. The Ca^2+ is coloured magenta. TEXT PRINTED IN THE PICTURE: (a) brartemicin: Ki (μM): 5.5 ± 0.9; Rel. affinity: 290 | (a) 2: Ki (μM): 5.4 ± 0.3; Rel. affinity: 300 | (a) 3: Ki (μM): 11.3 ± 0.9; Rel. affinity: 140 | (a) 4: Ki (μM): 164 ± 13; Rel. affinity: 9.8 | (a) epi-brartemicin: Ki (μM): 440 ± 70; Rel. affinity: 3.6 | (a) α,α-trehalose: Ki (μM): 1620 ± 70; Rel. affinity: 1
as §1

cancer cells = settings: cited from earlier work

Compound: Cc1cc(O)cc(O)c1C(=O)OC[C@H]1O[C@H](O[C@H]2O[C@H](COC(=O)c3c(C)cc(O)cc3O)[C@@H](O)[C@H](O)[C@H]2O)[C@H](O)[C@@H](O)[C@@H]1O [brartemicin, 6,6′-Bis-(2,4-dihydroxy-6-methylbenzoate)-α,α-trehalose]
Binding to CRD of human mincle (CRD of human mincle): binds with high affinity
Solubility in aqueous media [1]: soluble at millimolar concentrations
Ki (CRD from bovine mincle): 5.5 ± 0.9 µM
Block of matrigel-invasion of cancer cells (cancer cells): block matrigel-invasion of cancer cells

Compound: O=C(OC[C@H]1O[C@H](O[C@H]2O[C@H](COC(=O)c3ccccc3)[C@@H](O)[C@H](O)[C@H]2O)[C@H](O)[C@@H](O)[C@@H]1O)c1ccccc1 [compound 3]
Reduction in binding affinity compared to brartemicin (CRD from bovine mincle): two-fold
Rel. affinity (affinity relative to α,α-trehalose) (CRD from bovine mincle): 140 fold
Ki (CRD from bovine mincle): 11.3 ± 0.9 µM
Anti-invasive activity on cancer cells (cancer cells): in the same range as brartemicin

Compound: Cc1cc(O)cc(O)c1C(=O)OC[C@H]1O[C@@H](O[C@H]2O[C@H](COC(=O)c3c(C)cc(O)cc3O)[C@@H](O)[C@H](O)[C@H]2O)[C@H](O)[C@@H](O)[C@@H]1O [epi-brartemicin, 6,6′-Bis-(2,4-dihydroxy-6-methylbenzoate)-α,β-trehalose]
Reduction in binding affinity compared to brartemicin (CRD from bovine mincle): ~100 fold
Rel. affinity (affinity relative to α,α-trehalose) (CRD from bovine mincle): 3.6 fold
Ki (CRD from bovine mincle): 440 ± 70 µM

Compound: COc1cccc(C(=O)OC[C@H]2O[C@H](O[C@H]3O[C@H](COC(=O)c4cccc(OC)c4OC)[C@@H](O)[C@H](O)[C@H]3O)[C@H](O)[C@@H](O)[C@@H]2O)c1OC [compound 2]
Reduction in binding affinity compared to brartemicin (CRD from bovine mincle): equipotent
Rel. affinity (affinity relative to α,α-trehalose) (CRD from bovine mincle): 300 fold
Ki (CRD from bovine mincle): 5.4 ± 0.3 µM
Anti-invasive activity on cancer cells (cancer cells): in the same range as brartemicin

Continued, values first:

Reduction in binding affinity compared to brartemicin (CRD from bovine mincle): roughly 30 fold
Rel. affinity (affinity relative to α,α-trehalose) (CRD from bovine mincle): 9.8 fold
Ki (CRD from bovine mincle): 164 ± 13 µM
Compound: Cc1cc(O)cc(O)c1C(=O)OC[C@H]1O[C@H](O[C@H]2O[C@H](CO)[C@@H](O)[C@H](O)[C@H]2O)[C@H](O)[C@@H](O)[C@@H]1O [compound 4]

Rel. affinity (affinity relative to α,α-trehalose) (CRD from bovine mincle): 1 fold
Ki (CRD from bovine mincle): 1620 ± 70 µM
Compound: OC[C@H]1O[C@H](O[C@H]2O[C@H](CO)[C@@H](O)[C@H](O)[C@H]2O)[C@H](O)[C@@H](O)[C@@H]1O [α,α-trehalose, reference compound]
